Patent publication US20250320213A1, “Nitrogen-Containing Heterocyclic Compounds” (Pfizer Inc., priority 2024, published 2025)
Where two headings read alike, the source gives them in different places.

Legend:
STAT6 = biological target: T1, STAT6 (Homo sapiens, UniProt P42226); assay: STAT6 Reporter Luciferase Assay (IL-13 stimulated HaCaT keratinocyte NanoLuc reporter cells); assay type: cell-based; settings: read-out: Reporter EC50
T1 construct: stably transfected HaCaT keratinocyte cell line, which expresses NanoLuc luciferase reporter gene under the transcriptional control of the STAT6 responsive promoter; endogenous in cells; host or cells: HaCaT keratinocyte reporter cell line (stably transfected with a NanoLuc reporter)
T1 sequence (P42226 1-847): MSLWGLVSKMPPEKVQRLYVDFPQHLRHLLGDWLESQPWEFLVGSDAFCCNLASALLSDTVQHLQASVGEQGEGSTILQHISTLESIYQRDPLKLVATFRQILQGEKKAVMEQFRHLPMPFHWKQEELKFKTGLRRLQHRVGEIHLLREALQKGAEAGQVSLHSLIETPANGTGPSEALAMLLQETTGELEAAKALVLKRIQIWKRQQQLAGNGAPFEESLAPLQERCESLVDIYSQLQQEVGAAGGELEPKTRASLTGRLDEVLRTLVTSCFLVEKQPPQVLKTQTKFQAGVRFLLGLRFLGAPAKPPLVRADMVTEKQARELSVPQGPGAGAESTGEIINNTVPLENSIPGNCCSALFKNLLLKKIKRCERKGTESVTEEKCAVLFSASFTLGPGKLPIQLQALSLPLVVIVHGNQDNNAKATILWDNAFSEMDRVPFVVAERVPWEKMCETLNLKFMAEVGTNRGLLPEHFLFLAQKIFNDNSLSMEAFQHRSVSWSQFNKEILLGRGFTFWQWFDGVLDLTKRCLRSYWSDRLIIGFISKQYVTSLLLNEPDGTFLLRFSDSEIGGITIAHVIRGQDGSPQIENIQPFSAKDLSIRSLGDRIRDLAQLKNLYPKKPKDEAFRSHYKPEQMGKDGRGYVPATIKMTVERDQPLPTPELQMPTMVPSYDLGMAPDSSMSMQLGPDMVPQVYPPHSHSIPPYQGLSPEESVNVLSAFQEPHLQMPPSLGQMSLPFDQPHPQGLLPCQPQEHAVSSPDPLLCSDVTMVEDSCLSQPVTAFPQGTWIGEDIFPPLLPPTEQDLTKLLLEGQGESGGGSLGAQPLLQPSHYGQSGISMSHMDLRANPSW
In short: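 IL-13 (0.12 nM, 4 h) stimulated STAT6 reporter activity in HaCaT cells after a 2 h compound pre-incubation; NanoLuc signal was measured.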

[1] = tested on: CCL17 secretion in peripheral human whole blood; assay: Human Whole Blood (HWB) CCL17 TR-FRET Assay (IL-13 stimulated CCL17 secretion); assay type: cell-based
In short: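 IC50 values reflect inhibition of IL-13-driven CCL17 release in human whole blood. Blood was preincubated with compound 2 h, stimulated 48 h at 37 °C with IL-13 (10 ng/mL final), and serum CCL17 was measured by TR-FRET.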

[2] = STAT6 NanoLuc luciferase reporter, IL-13 stimulated HaCaT keratinocyte cells
[3] = inhibition of CCL17 secretion in human whole blood, 10 ng/mL IL13, 48 hours
[4] = Homo sapiens, 48 h, inhibition of CCL17 secretion in human whole blood, 10 ng/mL IL13, 48 hours
[5] = IL-13 stimulated HaCaT STAT6 NanoLuc reporter cells
[6] = human whole blood, IL-13 stimulated, 48 hours

EC50 (STAT6; [2]) [nM]	IC50 [1, 3] [nM]	IC50 [1, 4] [nM]	EC50 (STAT6; [5]) [nM]	IC50 [1, 6] [nM]	Structure (SMILES)
0.3		3			CC(C)n1nc(C(=O)NCc2ccc(NC(=O)N(C)C)cc2)c2c1[C@@H](C)CN(c1ccc(C(=O)N(C)C)cn1)C2 (single isomer, unassigned) [Example 128]
103		256			CCC1CN(c2ccc(C(=O)N(C)C)cn2)Cc2c(C(=O)NCc3ccc(NC(=O)N(C)C)cc3)nc(C)n21 (single isomer, unassigned) [Example 131, rel-(R or S)-7-(5-(dimethylcarbamoyl)pyridin-2-yl)-N-(4-(3,3-dimethylureido)benzyl)-5-ethyl-3-methyl-5,6,7,8-tetrahydroimidazo[1,5-a]pyrazine-1-carboxamide]
			20	38	CN(C)C(=O)Nc1ccc(CNC(=O)c2nn(C3CCOC3)c3c2CN(c2ccc(C(=O)N(C)C)cn2)CC3)cc1 (single isomer, unassigned) [Example 190, rel-(R or S)-5-(5-(dimethylcarbamoyl)pyridin-2-yl)-N-(4-(3,3-dimethylureido)benzyl)-1-(tetrahydrofuran-3-yl)-4,5,6,7-tetrahydro-1H-pyrazolo[4,3-c]pyridine-3-carboxamide]
			32	126	CN(C)C(=O)Nc1ccc(CNC(=O)c2nn(C3CCOC3)c3c2CN(c2ccc(C(=O)N(C)C)cn2)CC3)cc1 (single isomer, unassigned) [Example 191, rel-(R or S)-5-(5-(dimethylcarbamoyl)pyridin-2-yl)-N-(4-(3,3-dimethylureido)benzyl)-1-(tetrahydrofuran-3-yl)-4,5,6,7-tetrahydro-1H-pyrazolo[4,3-c]pyridine-3-carboxamide]
			1	16	CC1CN(c2ccc(-c3nccn3C)cn2)Cc2c(C(=O)NCc3ccc(NC(=O)N(C)C)cc3)nn(C)c21 (single isomer, unassigned) [Example 203, rel-(R or S)-N-(4-(3,3-dimethylureido)benzyl)-1,7-dimethyl-5-(5-(1-methyl-1H-imidazol-2-yl)pyridin-2-yl)-4,5,6,7-tetrahydro-1H-pyrazolo[4,3-c]pyridine-3-carboxamide]
			16	246	CC1CN(c2ccc(-c3nccn3C)cn2)Cc2c(C(=O)NCc3ccc(NC(=O)N(C)C)cc3)nn(C)c21 (single isomer, unassigned) [Example 204, rel-(R or S)-N-(4-(3,3-dimethylureido)benzyl)-1,7-dimethyl-5-(5-(1-methyl-1H-imidazol-2-yl)pyridin-2-yl)-4,5,6,7-tetrahydro-1H-pyrazolo[4,3-c]pyridine-3-carboxamide]
			14	277	CCn1nc(C(=O)NCc2ccc(NC(=O)N(C)C)cc2)c2c1[C@H]1CC[C@H]1N(c1ccc(C(=O)N(C)C)cn1)C2 (single isomer, unassigned) [Example 230]
			2	23	CCn1nc(C(=O)NCc2ccc(NC(=O)N(C)C)cc2)c2c1[C@H]1CC[C@H]1N(c1ccc(C(=O)N(C)C)cn1)C2 (single isomer, unassigned) [Example 231]
			2	5	CCc1nc(C(=O)NCc2ccc(NC(=O)N(C)C)cc2)c2n1C(C)CN(c1ccc(C(=O)N(C)C)cn1)C2 (single isomer, unassigned) [Example 232, rel-(R or S)-7-(5-(dimethylcarbamoyl)pyridin-2-yl)-N-(4-(3,3-dimethylureido)benzyl)-3-ethyl-5-methyl-5,6,7,8-tetrahydroimidazo[1,5-a]pyrazine-1-carboxamide]

More lines, now with the values behind:

Structure (SMILES)	EC50 (STAT6; [2]) [nM]	IC50 [1, 3] [nM]	IC50 [1, 4] [nM]	EC50 (STAT6; [5]) [nM]	IC50 [1, 6] [nM]
CCC1CN(c2ccc(C(=O)N(C)C)cn2)Cc2c(C(=O)NCc3ccc(NC(=O)N(C)C)cc3)n[nH]c21 (single isomer, unassigned) [Example 82, rel-(R or S)-5-(5-(dimethylcarbamoyl)pyridin-2-yl)-N-(4-(3,3-dimethylureido)benzyl)-7-ethyl-4,5,6,7-tetrahydro-1H-pyrazolo[4,3-c]pyridine-3-carboxamide]	101	112			
CCC1CN(c2ccc(C(=O)N(C)C)cn2)Cc2c(C(=O)NCc3ccc(NC(=O)N(C)C)cc3)n[nH]c21 (single isomer, unassigned) [Example 83, rel-(R or S)-5-(5-(dimethylcarbamoyl)pyridin-2-yl)-N-(4-(3,3-dimethylureido)benzyl)-7-ethyl-4,5,6,7-tetrahydro-1H-pyrazolo[4,3-c]pyridine-3-carboxamide]	86	278			
CC(C1CC1)n1nc(C(=O)NCc2ccc(NC(=O)N(C)C)cc2)c2c1CCN(c1ccc(C(=O)N(C)C)cn1)C2 (single isomer, unassigned) [Example 87, rel-(R or S)-1-(1-cyclopropylethyl)-5-(5-(dimethylcarbamoyl)pyridin-2-yl)-N-(4-(3,3-dimethylureido)benzyl)-4,5,6,7-tetrahydro-1H-pyrazolo[4,3-c]pyridine-3-carboxamide]	15		118		
CCn1nc(C(=O)NCc2ccc(NC(=O)N(C)C)cc2)c2c1C[C@H](C)N(c1ccc(C(=O)N(C)C)cn1)C2 (single isomer, unassigned) [Example 111]	3		13		
CC(C)n1nc(C(=O)NCc2ccc(NC(=O)N(C)C)cc2)c2c1[C@H](C)CN(c1ccc(C(=O)N(C)C)cn1)C2 (single isomer, unassigned) [Example 112]	15		78		
CCn1nc(C(=O)NCc2ccc(NC(=O)N(C)C)cc2)c2c1C[C@@H](C)N(c1ccc(C(=O)N(C)C)cn1)C2 (single isomer, unassigned) [Example 113]	17		161		
CCC1Cc2c(c(C(=O)NCc3ccc(NC(=O)N(C)C)cc3)nn2CC)CN1c1ccc(C(=O)N(C)C)cn1 (single isomer, unassigned) [Example 117, rel-(R or S)-5-(5-(dimethylcarbamoyl)pyridin-2-yl)-N-(4-(3,3-dimethylureido)benzyl)-1,6-diethyl-4,5,6,7-tetrahydro-1H-pyrazolo[4,3-c]pyridine-3-carboxamide]	3	13			
CCC1Cc2c(c(C(=O)NCc3ccc(NC(=O)N(C)C)cc3)nn2CC)CN1c1ccc(C(=O)N(C)C)cn1 (single isomer, unassigned) [Example 118, rel-(R or S)-5-(5-(dimethylcarbamoyl)pyridin-2-yl)-N-(4-(3,3-dimethylureido)benzyl)-1,6-diethyl-4,5,6,7-tetrahydro-1H-pyrazolo[4,3-c]pyridine-3-carboxamide]	25	116			
C[C@H]1CN(c2ccc(C(=O)N(C)C)cn2)Cc2c(C(=O)NCc3ccc(NC(=O)N(C)C)cc3)nn(C3CCC3)c21 (single isomer, unassigned) [Example 119]	0.3		4		
C[C@@H]1Cc2c(c(C(=O)NCc3ccc(NC(=O)N(C)C)cc3)nn2C)CN1c1ccc(-c2nccn2C)cn1 (single isomer, unassigned) [Example 122]	24		900		
CC(C)n1nc(C(=O)NCc2ccc(-c3ncc[nH]3)cc2)c2c1C(C(F)(F)F)CN(c1ccc(C(=O)N(C)C)cn1)C2 (single isomer, unassigned) [Example 123, rel-(R or S)-N-(4-(1H-imidazol-2-yl)benzyl)-5-(5-(dimethylcarbamoyl)pyridin-2-yl)-1-isopropyl-7-(trifluoromethyl)-4,5,6,7-tetrahydro-1H-pyrazolo[4,3-c]pyridine-3-carboxamide]	41	1010			
CC(C)n1nc(C(=O)NCc2ccc(-c3ncc[nH]3)cc2)c2c1C(C(F)(F)F)CN(c1ccc(C(=O)N(C)C)cn1)C2 (single isomer, unassigned) [Example 124, rel-(R or S)-N-(4-(1H-imidazol-2-yl)benzyl)-5-(5-(dimethylcarbamoyl)pyridin-2-yl)-1-isopropyl-7-(trifluoromethyl)-4,5,6,7-tetrahydro-1H-pyrazolo[4,3-c]pyridine-3-carboxamide]	0.3	5			
